Source: patent US7951538B2, “Method to determine the risk for side effects of an SSRI treatment in a person” (The Board of Trustees of the Leland Stanford Junior …, priority 2001, dated 2011)

Experiments:
[1] = system: patients with major depression; test: Improvement in mood on the Hamilton Depression Rating Scale over the 8 week treatment period; assay type: in vivo, human; conditions: not affected by the 102 T/C polymorphism
Experimental: (§1) All subjects were 65 years of age or older and had been free of 10 major medical problems for at least 3 months. […] Patients were excluded for clinically significant laboratory abnormalities, drug or alcohol abuse, psychosis, recent suicide attempt, and psychiatric conditions other than major depression, or treatment with antidepressant medications within 7 days of commencing the study.
On day 14, doses were increased to 30 mg once daily. […] All patients Were genotype for the 102 T/C polymorphism using the method described above.

[2] = system: patients with major depression; conditions: human, in vivo
Text: as §1
Genomic DNA was extracted from EDTA-treated whole blood using the Puregene DNA extraction kit (Gentra Systems). Genotype for the 102 T/C DNA sequence polymorphism in the 5-HT2A receptor gene was determined using the method of Du et al. (Am J Med Genet. 2000 Feb. 7;96(1):56-60). […]
Discontinuations were classified as due to any event, and as due to an adverse event. […] Body weight was determined at baseline and at each subsequent visit. Actual medication taken Was determined by counting the number of tablets remaining at each clinic visit. Dosing compliance was determined by as total number of medication doses taken divided by total number of capsules given. […]

SMILES: CN1CCN2c3ncccc3Cc3ccccc3C2C1 (stereo not drawn) [mirtazapine]
- improvement in mood (decreased depression), Hamilton Depression Rating Scale [1]: statistically significant improvement
- probability of discontinuing treatment due to side effects [2]: no greater probability
- severity of side effects [2]: no greater severity
